Experimental data as given in patent US20160212997A1, “AGRICULTURAL CHEMICALS” (REDAG CROP PROTECTION LTD, priority 2013, published 2016).
Where two headings read alike, the source gives them in different places.

Columns and labels:
Type in all cases: in vivo
[1] = test system: red spider mites, Tetranychus urticae; experiment: Potter tower spray on red spider mites, knockdown and mortality; settings: for percentage control: Spider mites; for activity against spider mites compared with the reference compound: versus flupyradifurone or sulfoxaflor respectively, tables 1 and 3
From the text: The compounds were screened for insecticidal efficacy against aphids, Myzus persicae, Cabbage moth, Mamestra brassicae, diamond black moths, Plutella xylostella, red spider mites, Tetranychus urticae, whitefly, Trialeurodes vaporariorum, in terms of knockdown and mortality.
Myzus persicae, Cabbage moth, Mamestra brassicae, diamond back moths, Plutella xylostella, red spider mites, Tetranychus urticae, whitefly, Trialeurodes vaporariorum, were obtained from specified laboratory cultures. Mixed sex and age aphids and mites, moth larvae and whitefly scale infested leaves were used in the experiments. Environmental conditions were closely monitored and recorded and were within the optimal range of the target species.
The compounds were screened at a range of five concentrations, diluted in DMSO. Some of the compounds were screened against aphids, whitefly and red spider mites and other compounds were screened against cabbage moth, and diamond black moths. A carrier only and an untreated control will also be conducted. Treatments were applied directly onto the insects within Petri dishes, using a potter tower.
Twenty mites and ten aphids, scales and moth larvae were placed within a Petri dish, lined with a suitable leaf disc on a damp cotton wool pad. Scales were already on leaves. The Petri dishes were then sprayed using a potter tower. The number of knocked down and anthropods were assessed at 24 and 48 hours post treatment. Five replicates were be performed for each treatment, for each species.

[2] = test system: caterpillars, a mixture of Mamestra brassicae and Lacanobia oleracea; experiment: Potter tower spray on caterpillars, knockdown and mortality; settings: Caterpillars, read-out: Average of % corrected affected; for pest or weed control at 0.1 % strength: 0.1 % w/v; for pest or weed control at 0.00625 % strength: 0.00625 % w/v; for pest or weed control at 0.0125 % strength: 0.0125 % w/v; for pest or weed control at 0.025 % strength: 0.025 % w/v; for pest or weed control at 0.05 % strength: 0.05 % w/v
Outline: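 Mixed Mamestra brassicae and Lacanobia oleracea larvae (ten per dish, on leaf disc over damp cotton wool) sprayed directly with a Potter tower at five concentrations in DMSO containing 1% v/v Tween 20, alongside carrier-only and untreated controls. Knockdown and mortality scored at 24 and 48 h post treatment; five replicates per treatment.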

[3] = test system: aphids, Myzus persicae; experiment: Potter tower spray on aphids, knockdown and mortality; settings: Aphids; for pest or weed control at 0.1 % strength: Myzus persicae, 0.1 % w/v, read-out: Average of % corrected affected
Outline: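 Ten aphids (mixed sex and age) per Petri dish on a leaf disc were sprayed by Potter tower with compounds at five concentrations in DMSO. Knockdown and mortality were scored at 24 and 48 hours, five replicates per treatment, alongside carrier-only and untreated controls.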

[4] = 24 h, 24 hours post application
[5] = 48 h, 48 hours post application

Row | SMILES | percentage control ([1]; 12.5 g/ha, 24 h) | percentage control ([1]; 12.5 g/ha, 48 h) | percentage control ([1]; 25 g/ha, 24 h) | percentage control ([1]; 25 g/ha, 48 h) | percentage control ([1]; 50 g/ha, 24 h) | percentage control ([1]; 50 g/ha, 48 h) | percentage control ([1]; 100 g/ha, 24 h) | percentage control ([1]; 100 g/ha, 48 h) | percentage control ([1]; 200 g/ha, 24 h) | percentage control ([1]; 200 g/ha, 48 h) | activity against spider mites compared with the reference compound [1] | pest or weed control at 0.1 % strength [2, 4] | pest or weed control at 0.00625 % strength [2, 5] | pest or weed control at 0.0125 % strength [2, 5] | pest or weed control at 0.025 % strength [2, 5] | pest or weed control at 0.05 % strength [2, 5] | pest or weed control at 0.1 % strength [2, 5] | percentage control ([3]; 12.5 g/ha, 24 h) | percentage control ([3]; 12.5 g/ha, 48 h) | percentage control ([3]; 25 g/ha, 24 h) | further results
1 | COC(=O)N=S(C)(=O)C(C)c1ccc(C(F)(F)F)nc1 (stereo not shown) [Compound 13, Methyl N-[methyl-oxo-[1-[6-(trifluoromethyl)-3-pyridyl]ethyl]-λ^6-sulfanylidene]carbamate] | D (A percentage control of from 20 to 39 is indicated by the letter D) | B (A percentage control of from 60 to 79 is indicated by the letter B) | D (A percentage control of from 20 to 39 is indicated by the letter D) | C (A percentage control of from 40 to 59 is indicated by the letter C) | D (A percentage control of from 20 to 39 is indicated by the letter D) | B (A percentage control of from 60 to 79 is indicated by the letter B) | D (A percentage control of from 20 to 39 is indicated by the letter D) | B (A percentage control of from 60 to 79 is indicated by the letter B) | D (A percentage control of from 20 to 39 is indicated by the letter D) | B (A percentage control of from 60 to 79 is indicated by the letter B) | more active than the reference compound | 1 to 19% | 1 to 19% | 1 to 19% | 1 to 19% | 1 to 19% | 20 to 39% | E (A percentage control of from 1 to 19 is indicated by the letter E) | D (A percentage control of from 20 to 39 is indicated by the letter D) | E (A percentage control of from 1 to 19 is indicated by the letter E) | percentage control ([3]; 25 g/ha, 48 h): D (A percentage control of from 20 to 39 is indicated by the letter D); percentage control ([3]; 50 g/ha, 24 h): E (A percentage control of from 1 to 19 is indicated by the letter E); percentage control ([3]; 50 g/ha, 48 h): D (A percentage control of from 20 to 39 is indicated by the letter D); percentage control ([3]; 100 g/ha, 24 h): E (A percentage control of from 1 to 19 is indicated by the letter E); percentage control ([3]; 100 g/ha, 48 h): E (A percentage control of from 1 to 19 is indicated by the letter E); percentage control ([3]; 200 g/ha, 24 h): D (A percentage control of from 20 to 39 is indicated by the letter D); percentage control ([3]; 200 g/ha, 48 h): C (A percentage control of from 40 to 59 is indicated by the letter C); pest or weed control at 0.1 % strength [3, 4]: 20 to 39%; pest or weed control at 0.1 % strength [3, 5]: 20 to 39%
2 | CC(c1ccc(C(F)(F)F)nc1)S(C)(=O)=NS(C)(=O)=O (stereo not shown) [Compound 14, N-[methyl-oxo-[1-[6-(trifluoromethyl)-3-pyridyl]ethyl]-λ^6-sulfanylidene]methane-sulfonamide] | D (A percentage control of from 20 to 39 is indicated by the letter D) | C (A percentage control of from 40 to 59 is indicated by the letter C) | C (A percentage control of from 40 to 59 is indicated by the letter C) | C (A percentage control of from 40 to 59 is indicated by the letter C) | D (A percentage control of from 20 to 39 is indicated by the letter D) | C (A percentage control of from 40 to 59 is indicated by the letter C) | C (A percentage control of from 40 to 59 is indicated by the letter C) | B (A percentage control of from 60 to 79 is indicated by the letter B) | B (A percentage control of from 60 to 79 is indicated by the letter B) | B (A percentage control of from 60 to 79 is indicated by the letter B) | more active than the reference compound | 1 to 19% | 1 to 19% | 1 to 19% | 1 to 19% | 1 to 19% | 1 to 19% | E (A percentage control of from 1 to 19 is indicated by the letter E) | D (A percentage control of from 20 to 39 is indicated by the letter D) | E (A percentage control of from 1 to 19 is indicated by the letter E) | percentage control ([3]; 25 g/ha, 48 h): E (A percentage control of from 1 to 19 is indicated by the letter E); percentage control ([3]; 50 g/ha, 24 h): E (A percentage control of from 1 to 19 is indicated by the letter E); percentage control ([3]; 50 g/ha, 48 h): D (A percentage control of from 20 to 39 is indicated by the letter D); percentage control ([3]; 100 g/ha, 24 h): E (A percentage control of from 1 to 19 is indicated by the letter E); percentage control ([3]; 100 g/ha, 48 h): D (A percentage control of from 20 to 39 is indicated by the letter D); percentage control ([3]; 200 g/ha, 24 h): E (A percentage control of from 1 to 19 is indicated by the letter E); percentage control ([3]; 200 g/ha, 48 h): D (A percentage control of from 20 to 39 is indicated by the letter D); pest or weed control at 0.1 % strength [3, 4]: 20 to 39%; pest or weed control at 0.1 % strength [3, 5]: 20 to 39%
